Key:
[1] = test system: Bax; assay: Western blotting of Bax in brain tissue; format: in vivo, C57BL/6 mice; conditions: brain tissue 24 h after administration, sham = 1.00; tPA 10 mg/kg alone or + T541 20 mg/kg or ingredients at Table 7 doses
Source text: (§1) To compare the therapeutical effect on reperfusion injury caused by tPA thrombolysis between the traditional Chinese medicinal composition of the present invention and each ingredient (total saponins of Astragalus, the experiment was divided into the following group (tPA is combined with T541, individual ingredient thereof and compatibility of any two ingredients) specifically as follows: tPA+total saponins of Astragalus (tPA+HQ), tPA+ salvianolic acids (tPA+DS), tPA+Panax notoginseng saponins (tPA+SQ), tPA+ total saponins of Astragalus+salvianolic acids (tPA+HQ+DS), tPA+ total saponins of Astragalus+Panax notoginseng saponins (tPA+HQ+SQ), tPA+ salvianolic acids+Panax notoginseng saponins (tPA+DS+SQ) and tPA+T541. Normal saline served as an isovolumetric control. The usage number in each group is 6.
(§2) After reperfused for 24 hours, mice were perfused by normal saline; Western blotting analysis was conducted to the penumbra field of infarcted right cerebral cortex. […] Excessive supernatant was taken out and quantified by a BCA protein quantification liquor (ThermoScientific, US) to measure absorbance value at 560 nm of ELIASA and to calculate the protein concentration according to a standard curve. […] The density of electrophoretic strips was analyzed by an image analysis software Quantityone. […]

[2] = test system: ZO-1; assay: Western blotting of ZO-1, cortex of ischemic penumbra; format: in vivo, C57BL/6 mice; conditions: brain tissue 24 hours after administration, sham = 1.00; tPA 10 mg/kg alone; T541 20 mg/kg + tPA 10 mg/kg
Experimental: (§3) After reperfused for 24 hours, mice were perfused by normal saline; Western blotting analysis was conducted to the penumbra field of infarcted right cerebral cortex. After perfused, mice brain tissue was taken out; cerebellum and prefrontal lobe were cut off; the brain tissue of right brain close to 1 cm of the central joint of left and right hemispheres along the sagittal view; infarcted penumbra field of the rest tissues was cut off along an 45° angle; the cerebral cortex of the penumbra field was peeled off and preserved at low temperature. Right cerebral cortex was taken and added 1×RIPA lysate and a Cocktail protease inhibitor (1:100, Cell Signaling Technology, US) for full pyrolysis and ultrasonic treatment, and then 17000 g were centrifuged for 30 minutes. Supernatant was taken and added 5×loading buffer by volume, boiled for 20 minutes in boiling water, and then preserved at −80° C. Excessive supernatant was taken out and quantified by a BCA protein quantification liquor (ThermoScientific, US) to measure absorbance value at 560 nm of ELIASA and to calculate the protein concentration according to a standard curve. […] The density of electrophoretic strips was analyzed by an image analysis software Quantityone. […]

[3] = test system: Collagen IV; assay: Western blotting of Collagen IV, basement membrane; format: in vivo, C57BL/6 mice; conditions: brain tissue 24 hours after administration, sham = 1.00; tPA 10 mg/kg alone; T541 20 mg/kg + tPA 10 mg/kg
Experimental: as §3

[4] = test system: cerebral cortex microvessels; assay: Opening number of cerebral cortex microvessels by SEM; format: in vivo, C57BL/6 mice; conditions: 24 h after administration; tPA 10 mg/kg alone; T541 20 mg/kg + tPA 10 mg/kg
Experimental: Scanning electron microscope (SEM): after reperfused for 24 hours, anesthetized mice were perfused 3% glutaraldehyde for 40 minutes via ventriculus sinister at a rate of 3 ml/min; the brain was taken, and the right cortical penumbra was cut off and immobilized in glutaraldehyde for 2 hours. After washed by a PBS phosphate buffer, mice were immobilized in 1% osmium tetroxide for 2 hours; a proper section was taken and fixed on a metal support. Tissue blocks were plated gold, observed and shoot by an SEM (JSM-5600LV, JEOL, Tokyo, Japan).
5 500-fold visual fields were randomly selected for each mouse under SEM to count the opening number of cerebral cortex microvessels in right hemisphere penumbra. N=3. (See lines 3 and 4 of FIG. 7)

[5] = test system: Laminin; assay: Western blotting of Laminin, basement membrane; format: in vivo, C57BL/6 mice; conditions: brain tissue 24 hours after administration, sham = 1.00; tPA 10 mg/kg alone; T541 20 mg/kg + tPA 10 mg/kg
Experimental: as §3

[6] = test system: Bcl-2; assay: Western blotting of Bcl-2 in brain tissue; format: in vivo, C57BL/6 mice; conditions: brain tissue 24 h after administration, sham = 1.00; tPA 10 mg/kg alone or + T541 20 mg/kg or ingredients at Table 7 doses
Source text: as §1, §2

[7] = test system: JAM-1; assay: Western blotting of JAM-1, endothelial cells after hypoxia/reoxygenation; format: cell-based; conditions: rat brain endothelial cells, hypoxia 4.5 h/reoxygenation 3 h; tPA 20 mcg/ml alone (model group); T541 400 mcg/ml + tPA 20 mcg/ml
Source text: Establishment of rat brain endothelial cell H/R model: rat brain endothelial cells were purchased from ATCC, and then subcultured to 5-6 generations in normal conditions for further experiment. […]

Question: What does the source list for “tPA: tissue-type plasminogen activator (tPA) for thrombolysis”?
Answer: Bax [1]: 5.52 ± 0.78; Bax/Bcl-2 [1]: 3.82 ± 0.57; ZO-1/β-actin [2]: 0.42 ± 0.05; Collagen IV content [3]: 0.68 ± 0.04; Opening number of microvessels [4]: 21.07 ± 1.54; Laminin content [5]: 0.47 ± 0.06; Bcl-2 [6]: 1.51 ± 0.14; JAM-1/β-actin [7]: 0.64 ± 0.05

— US20210038668A1, “TRADITIONAL CHINESE MEDICINE COMPOSITION FOR PREVENTING AND/OR TREATING ISCHEMIC REPERFUSION INJURY” (TASLY PHARMACEUTICAL GROUP CO., LTD., priority 2018, published 2021)
